Assay results: ChEMBL document CHEMBL1145262, “Aryl sulfones: a new class of gamma-secretase inhibitors” (Bioorg Med Chem Lett, 2005)

What follows are compounds tested against Gamma-secretase (assay: In vitro inhibition of gamma-secretase as amyloid peptide production in SH-SY5Y cells).
Type: functional, cell-based, Homo sapiens

IC50 [nM] | SMILES
461 | O=S(=O)(c1ccc(Cl)cc1)C1(c2ccccc2)CCCCC1
55 | O=S(=O)(c1ccc(Cl)cc1)C1(c2ccccc2F)CCCCC1
170 | CC(C)N(c1cc(F)ccc1F)S(=O)(=O)c1ccc(Cl)cc1
27 | C[C@H](CO)N(c1cc(F)ccc1F)S(=O)(=O)c1ccc(Cl)cc1
70 | CC(C)C(c1cc(F)ccc1F)S(=O)(=O)c1ccc(Cl)cc1 (centres undefined)
35 | CC(CCO)C(c1cc(F)ccc1F)S(=O)(=O)c1ccc(Cl)cc1 (centres undefined)
253 | COC(=O)C(C)C(c1cc(F)ccc1F)S(=O)(=O)c1ccc(Cl)cc1 (centres undefined)
> 10000 | O=S(=O)(Nc1cc(F)ccc1F)c1ccc(Cl)cc1
304 | CC(CO)C(c1cc(F)ccc1F)S(=O)(=O)c1ccc(Cl)cc1 (centres undefined)
4410 | O=S(=O)(Cc1cc(F)ccc1F)c1ccc(Cl)cc1
2470 | CC(c1cc(F)ccc1F)S(=O)(=O)c1ccc(Cl)cc1 (centres undefined)
249 | O=S(=O)(c1ccc(Cl)cc1)C1(c2cccc(F)c2)CCCCC1
98 | O=S(=O)(c1ccccc1)C1(c2cc(F)ccc2F)CCCCC1
1900 | CN(c1cc(F)ccc1F)S(=O)(=O)c1ccc(Cl)cc1
104 | COC(=O)C1CC(c2cc(F)ccc2F)(S(=O)(=O)c2ccc(Cl)cc2)CCC1=O (centres undefined)
22 | O=C1CCC(c2cc(F)ccc2F)(S(=O)(=O)c2ccc(Cl)cc2)CC1
3 | O=S(=O)(c1ccc(Cl)cc1)C1(c2cc(F)ccc2F)CCCCC1
12 | O=S(=O)(c1ccc(Cl)cc1)C1(c2cc(F)ccc2F)CC2CCC(C2)C1 (stereo in doubt; 19)
94 | O=S(=O)(c1ccc(Cl)cc1)C1(c2cc(F)ccc2F)CC2CCC(C2)C1 (stereo in doubt; 20)
